Measurements reported in patent publication US10730874B2 (Shire Human Genetic Therapies, Inc., priority 2018, dated 2020).

Biological target: human activated kallikrein enzyme (plasma kallikrein) (Homo sapiens (Human), UniProt P03952)
Assay: Inhibition of human activated plasma kallikrein, fluorogenic peptide substrate assay, 500 pM enzyme format
Type: biochemical
Conditions: 500 pM activated kallikrein enzyme, 300 uM Pro-Phe-Arg-7-amido-4-methylcoumarin substrate, 30 min preincubation, 10 min at RT; read-out: Primary Dose Response Assay: Average EC50
How it was run: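 Buffer 20 mM Tris pH 7.5, EDTA, NaCl, PEG-400, Triton X-100; 300 uM Pro-Phe-Arg-AMC; enzyme–inhibitor preincubation 30 min RT. Format one: 500 pM kallikrein, 10 min RT reaction; format two: 5 pM kallikrein, 18 h RT reaction. Fluorescence read at 460 nm (380 nm excitation).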

Chain of human activated kallikrein enzyme (plasma kallikrein) (P03952 391-638): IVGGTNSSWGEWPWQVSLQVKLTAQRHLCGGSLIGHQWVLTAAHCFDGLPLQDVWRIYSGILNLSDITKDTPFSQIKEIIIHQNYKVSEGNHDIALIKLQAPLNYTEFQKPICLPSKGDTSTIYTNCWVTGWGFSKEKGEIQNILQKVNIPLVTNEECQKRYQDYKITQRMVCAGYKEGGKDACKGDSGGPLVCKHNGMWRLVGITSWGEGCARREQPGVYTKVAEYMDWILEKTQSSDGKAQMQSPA
Chain of human activated kallikrein enzyme (plasma kallikrein) (P03952 20-390 partner): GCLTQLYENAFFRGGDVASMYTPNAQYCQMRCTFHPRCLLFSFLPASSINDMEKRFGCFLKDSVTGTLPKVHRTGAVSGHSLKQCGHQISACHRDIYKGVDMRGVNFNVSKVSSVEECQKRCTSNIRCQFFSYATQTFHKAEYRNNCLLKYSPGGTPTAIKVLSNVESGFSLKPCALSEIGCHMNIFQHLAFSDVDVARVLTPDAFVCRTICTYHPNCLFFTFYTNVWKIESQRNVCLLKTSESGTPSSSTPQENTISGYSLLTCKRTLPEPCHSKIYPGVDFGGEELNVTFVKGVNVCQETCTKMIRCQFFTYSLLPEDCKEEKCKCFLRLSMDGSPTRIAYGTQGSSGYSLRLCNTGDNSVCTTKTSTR

SMILES	EC50 [nM]
CCOC(=O)CC(c1cn2cc(C3CC3)ccc2n1)n1cc(C(=O)NCc2ncn3ccc(Cl)c(F)c23)nn1 (stereo not shown) [Example I-227a, ethyl 3-(4-(((7-chloro-8-fluoroimidazo[1,5-a]pyridin-1-yl)methyl)carbamoyl)-1H-1,2,3-triazol-1-yl)-3-(6-cyclopropylimidazo[1,2-a]pyridin-2-yl)propanoate]	10 to 100
O=C(O)CC(c1cn2cc(C3CC3)ccc2n1)n1cc(C(=O)NCc2ncn3ccc(Cl)c(F)c23)nn1 (stereo not shown) [Example I-227b, 3-(4-(((7-chloro-8-fluoroimidazo[1,5-a]pyridin-1-yl)methyl)carbamoyl)-1H-1,2,3-triazol-1-yl)-3-(6-cyclopropylimidazo[1,2-a]pyridin-2-yl)propanoic acid]	100 to 2000
O=C(NCc1ncn2ccc(Cl)c(F)c12)c1cn(Cc2cc3ccc(C4CC4)cc3s2)nn1 [Example I-229, N-((7-chloro-8-fluoroimidazo[1,5-a]pyridin-1-yl)methyl)-1-((6-cyclopropylbenzo[b]thiophen-2-yl)methyl)-1H-1,2,3-triazole-4-carboxamide]	10 to 100
O=C(NCc1ncn2ccc(Cl)c(F)c12)c1cn(Cc2cc3cc(C4CC4)ccc3[nH]2)nn1 [Example I-232, N-((7-chloro-8-fluoroimidazo[1,5-a]pyridin-1-yl)methyl)-1-((5-cyclopropyl-1H-indol-2-yl)methyl)-1H-1,2,3-triazole-4-carboxamide]	10 to 100
Cn1c(Cn2cc(C(=O)NCc3ncn4ccc(Cl)c(F)c34)nn2)cc2cc(C3CC3)ccc21 [Example I-233, N-((7-chloro-8-fluoroimidazo[1,5-a]pyridin-1-yl)methyl)-1-((5-cyclopropyl-1-methyl-1H-indol-2-yl)methyl)-1H-1,2,3-triazole-4-carboxamide]	1 to 10
O=C(NCc1ncn2ccc(Cl)c(F)c12)c1cn(Cc2cc3ccc(Cl)cc3s2)nn1 [Example I-234, N-((7-chloro-8-fluoroimidazo[1,5-a]pyridin-1-yl)methyl)-1-((6-chlorobenzo[b]thiophen-2-yl)methyl)-1H-1,2,3-triazole-4-carboxamide]	10 to 100
O=C(NCc1ncn2ccc(Cl)c(F)c12)c1cn(Cc2cc3ccc(C4CC4)cc3[nH]2)nn1 [Example I-235, N-((7-chloro-8-fluoroimidazo[1,5-a]pyridin-1-yl)methyl)-1-((6-cyclopropyl-1H-indol-2-yl)methyl)-1H-1,2,3-triazole-4-carboxamide]	100 to 2000
O=C(NCc1ncn2ccc(Cl)c(F)c12)c1cn(Cc2nc3cc(C4CC4)ccc3[nH]2)nn1 [Example I-236, N-((7-chloro-8-fluoroimidazo[1,5-a]pyridin-1-yl)methyl)-1-((5-cyclopropyl-1H-benzo[d]imidazol-2-yl)methyl)-1H-1,2,3-triazole-4-carboxamide]	10 to 100
O=C(NCc1ncn2ccc(Cl)c(F)c12)c1cn(Cc2cn3cc(C4CC4)c(F)cc3n2)nn1 [Example I-239, N-((7-chloro-8-fluoroimidazo[1,5-a]pyridin-1-yl)methyl)-1-((6-cyclopropyl-7-fluoroimidazo[1,2-a]pyridin-2-yl)methyl)-1H-1,2,3-triazole-4-carboxamide]	1 to 10
O=C(NCc1ncn2ccc(Cl)c(F)c12)c1nnc(C(F)(F)c2cn3cc(C4CC4)ccc3n2)o1 [Example I-243, N-((7-chloro-8-fluoroimidazo[1,5-a]pyridin-1-yl)methyl)-5-((6-cyclopropylimidazo[1,2-a]pyridin-2-yl)difluoromethyl)-1,3,4-oxadiazole-2-carboxamide]	1 to 10
O=C(O)Cn1c(Cn2cc(C(=O)NCc3ncn4ccc(Cl)c(F)c34)nn2)cc2cc(C3CC3)ccc21 [Example I-244, 2-(2-((4-(((7-chloro-8-fluoroimidazo[1,5-a]pyridin-1-yl)methyl)carbamoyl)-1H-1,2,3-triazol-1-yl)methyl)-5-cyclopropyl-1H-indol-1-yl)acetic acid]	10 to 100
CCOC(=O)C(C)Cc1cc(C2CC2)cn2cc(Cn3cc(C(=O)NCc4ncn5ccc(Cl)c(F)c45)nn3)nc12 (stereo not shown) [Example I-245a, ethyl 3-(2-((4-(((7-chloro-8-fluoroimidazo[1,5-a]pyridin-1-yl)methyl)carbamoyl)-1H-1,2,3-triazol-1-yl)methyl)-6-cyclopropylimidazo[1,2-a]pyridin-8-yl)-2-methylpropanoate]	< 1
CC(Cc1cc(C2CC2)cn2cc(Cn3cc(C(=O)NCc4ncn5ccc(Cl)c(F)c45)nn3)nc12)C(=O)O (stereo not shown) [Example I-245b, 3-(2-((4-(((7-chloro-8-fluoroimidazo[1,5-a]pyridin-1-yl)methyl)carbamoyl)-1H-1,2,3-triazol-1-yl)methyl)-6-cyclopropylimidazo[1,2-a]pyridin-8-yl)-2-methylpropanoic acid]	< 1
COC(=O)Cn1c(Cn2cc(C(=O)NCc3ncn4ccc(Cl)c(F)c34)nn2)cc2cc(C3CC3)ccc21 [Example I-246, methyl 2-(2-((4-(((7-chloro-8-fluoroimidazo[1,5-a]pyridin-1-yl)methyl)carbamoyl)-1H-1,2,3-triazol-1-yl)methyl)-5-cyclopropyl-1H-indol-1-yl)acetate]	< 1
O=C(NCc1ncn2ccc(Cl)c(F)c12)c1cn(Cc2cn3cc(C4CC4)cc(-n4cn[nH]c(=O)c4=O)c3n2)nn1 [Example I-247, N-((7-chloro-8-fluoroimidazo[1,5-a]pyridin-1-yl)methyl)-1-((6-cyclopropyl-8-(5,6-dioxo-5,6-dihydro-1,2,4-triazin-4(1H)-yl)imidazo[1,2-a]pyridin-2-yl)methyl)-1H-1,2,3-triazole-4-carboxamide]	< 1

Results, then the compound that gave them:

EC50 [nM]	SMILES
< 1	O=C(NCc1ncn2ccc(Cl)c(F)c12)c1cn(Cc2cn3cc(C4CC4)cc(-c4cnoc4)c3n2)nn1 [Example I-225, N-((7-chloro-8-fluoroimidazo[1,5-a]pyridin-1-yl)methyl)-1-((6-cyclopropyl-8-(isoxazol-4-yl)imidazo[1,2-a]pyridin-2-yl)methyl)-1H-1,2,3-triazole-4-carboxamide]
< 1	O=C(O)c1cn(-c2cc(C3CC3)cn3cc(Cn4cc(C(=O)NCc5ncn6ccc(Cl)c(F)c56)nn4)nc23)cn1 [Example I-226, 1-(2-((4-((7-chloro-8-fluoroimidazo[1,5-a]pyridin-1-yl)methylcarbamoyl)-1H-1,2,3-triazol-1-yl)methyl)-6-cyclopropylimidazo[1,2-a]pyridin-8-yl)-1H-imidazole-4-carboxylic acid]
< 1	C#Cc1cc(C2CC2)cn2cc(Cn3cc(C(=O)NCc4ncn5ccc(Cl)c(F)c45)nn3)nc12 [Example I-228, N-((7-chloro-8-fluoroimidazo[1,5-a]pyridin-1-yl)methyl)-1-((6-cyclopropyl-8-ethynylimidazo[1,2-a]pyridin-2-yl)methyl)-1H-1,2,3-triazole-4-carboxamide]
< 1	O=C(O)c1cnn(-c2cc(C3CC3)cn3cc(Cn4cc(C(=O)NCc5ncn6ccc(Cl)c(F)c56)nn4)nc23)c1 [Example I-230, 1-(2-((4-(((7-chloro-8-fluoroimidazo[1,5-a]pyridin-1-yl)methyl)carbamoyl)-1H-1,2,3-triazol-1-yl)methyl)-6-cyclopropylimidazo[1,2-a]pyridin-8-yl)-1H-pyrazole-4-carboxylic acid]
< 1	O=C(NCc1ncn2ccc(Cl)c(F)c12)c1cn(Cc2cc3cc(C4CC4)cc(C(F)(F)F)n3n2)nn1 [Example I-231, N-((7-chloro-8-fluoroimidazo[1,5-a]pyridin-1-yl)methyl)-1-((5-cyclopropyl-7-(trifluoromethyl)pyrazolo[1,5-a]pyridin-2-yl)methyl)-1H-1,2,3-triazole-4-carboxamide]
< 1	CC(C)(C#N)Cc1cc(C2CC2)cn2cc(Cn3cc(C(=O)NCc4ncn5ccc(Cl)c(F)c45)cn3)nc12 [Example I-237, N-((7-chloro-8-fluoroimidazo[1,5-a]pyridin-1-yl)methyl)-1-((8-(2-cyano-2-methylpropyl)-6-cyclopropylimidazo[1,2-a]pyridin-2-yl)methyl)-1H-pyrazole-4-carboxamide]
< 1	CC(C)(Cc1cc(C2CC2)cn2cc(Cn3cc(C(=O)NCc4ncn5ccc(Cl)c(F)c45)cn3)nc12)c1nn[nH]n1 [Example I-238, N-((7-chloro-8-fluoroimidazo[1,5-a]pyridin-1-yl)methyl)-1-((6-cyclopropyl-8-(2-methyl-2-(2H-tetrazol-5-yl)propyl)imidazo[1,2-a]pyridin-2-yl)methyl)-1H-pyrazole-4-carboxamide]
< 1	O=C(NCc1ncn2ccc(Cl)c(F)c12)c1cn(Cc2nc3ccc(C4CC4)cn3c2F)nn1 [Example I-240, N-((7-chloro-8-fluoroimidazo[1,5-a]pyridin-1-yl)methyl)-1-((6-cyclopropyl-3-fluoroimidazo[1,2-a]pyridin-2-yl)methyl)-1H-1,2,3-triazole-4-carboxamide]
< 1	CCOC(=O)C(C)(C)C(O)c1cc(C2CC2)cn2cc(Cn3cc(C(=O)NCc4ncn5ccc(Cl)c(F)c45)nn3)nc12 (stereo not shown) [Example I-241a, ethyl 3-(2-((4-(((7-chloro-8-fluoroimidazo[1,5-a]pyridin-1-yl)methyl)carbamoyl)-1H-1,2,3-triazol-1-yl)methyl)-6-cyclopropylimidazo[1,2-a]pyridin-8-yl)-3-hydroxy-2,2-dimethylpropanoate]
< 1	CCn1ncn(-c2cc(C3CC3)cn3cc(Cn4cc(C(=O)NCc5ncn6ccc(Cl)c(F)c56)nn4)nc23)c(=O)c1=O [Example I-242, N-((7-chloro-8-fluoroimidazo[1,5-a]pyridin-1-yl)methyl)-1-((6-cyclopropyl-8-(1-ethyl-5,6-dioxo-5,6-dihydro-1,2,4-triazin-4(1H)-yl)imidazo[1,2-a]pyridin-2-yl)methyl)-1H-1,2,3-triazole-4-carboxamide]
